From ChEMBL document CHEMBL6096628, “Discovery of a Highly Potent and Selective BRD9 PROTAC Degrader Based on E3 Binder Investigation for the Treatment of Hematological Tumors” (J Med Chem, 2024)
The source made the active and inactive calls. The rule behind the calls is not given here.

Experiments:
[1] = target: T1, Protein cereblon/Bromodomain-containing protein 9 (Homo sapiens, UniProt Q9H8M2+Q96SW2); experiment: PROTAC activity at CRBN/BRD9 in human MV4-11 cells assessed as induction of BRD9 degradation at 0.33 nM measured within 2 hrs by Western blot analysis; assay type: cell-based
Target sequence in this assay (Q96SW2 whole entry, looked up): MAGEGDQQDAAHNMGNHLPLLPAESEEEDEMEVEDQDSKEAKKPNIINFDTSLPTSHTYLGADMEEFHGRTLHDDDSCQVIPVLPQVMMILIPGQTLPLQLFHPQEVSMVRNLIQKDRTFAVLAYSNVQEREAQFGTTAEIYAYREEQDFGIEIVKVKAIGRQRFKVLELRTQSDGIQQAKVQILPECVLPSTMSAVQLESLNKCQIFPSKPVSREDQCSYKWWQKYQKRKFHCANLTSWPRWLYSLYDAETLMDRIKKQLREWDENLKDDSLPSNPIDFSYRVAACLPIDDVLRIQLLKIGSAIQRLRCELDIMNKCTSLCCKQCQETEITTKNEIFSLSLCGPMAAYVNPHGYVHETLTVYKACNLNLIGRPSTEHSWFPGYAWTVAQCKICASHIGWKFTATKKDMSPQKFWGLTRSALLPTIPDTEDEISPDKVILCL
Target sequence in this assay (Q9H8M2 whole entry, looked up): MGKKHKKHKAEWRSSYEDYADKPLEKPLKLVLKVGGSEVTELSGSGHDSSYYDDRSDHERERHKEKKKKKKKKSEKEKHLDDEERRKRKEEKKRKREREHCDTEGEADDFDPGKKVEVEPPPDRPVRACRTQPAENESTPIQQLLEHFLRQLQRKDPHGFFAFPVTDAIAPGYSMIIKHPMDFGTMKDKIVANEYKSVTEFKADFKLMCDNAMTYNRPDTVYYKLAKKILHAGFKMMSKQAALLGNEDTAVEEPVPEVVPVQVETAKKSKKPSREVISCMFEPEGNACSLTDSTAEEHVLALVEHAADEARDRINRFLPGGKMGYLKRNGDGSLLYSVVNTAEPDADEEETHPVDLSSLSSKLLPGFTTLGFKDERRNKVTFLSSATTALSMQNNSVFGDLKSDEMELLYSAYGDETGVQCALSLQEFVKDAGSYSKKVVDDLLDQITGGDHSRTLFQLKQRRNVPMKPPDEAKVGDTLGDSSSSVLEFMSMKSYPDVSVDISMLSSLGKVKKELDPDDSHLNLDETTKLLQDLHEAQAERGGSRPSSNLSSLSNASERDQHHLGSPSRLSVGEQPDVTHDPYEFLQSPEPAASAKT

MV4-11 [2] = experiment: Antitumor activity against human MV4-11 cells xenografted in Balb/c nude mouse assessed as relative tumor volume at 20 mg/kg, ip administered once daily for 20 days (reference value: 7.85 +/- 3.69); assay type: functional; settings: time 20 day
MV4-11 [3] = experiment: Downregulation of TTK protein expression in human MV4-11 cells by proteomic analysis; assay type: functional, cell-based
MV4-11 [4] = experiment: Downregulation of beta-catenin mRNA expression level in human MV4-11 cells at 0.1 to 10 nM measured after 24 to 48 hrs by Western blot analysis; assay type: functional, cell-based; settings: dose 0.1-10 nM, time 24-48 hrs
MV4-11 [5] = experiment: Induction of apoptosis in human MV4-11 cells assessed as late apoptotic cells at 0.01 nM incubated for 48 hrs by Annexin V-FITC/PI staining based flow cytometric analysis (reference value: 0.91 %); assay type: functional
MV4-11 [6] = experiment: Upregulation of C-myc mRNA expression level in human MV4-11 cells at 0.1 to 10 nM measured after 24 to 48 hrs by qPCR analysis; assay type: functional, cell-based; settings: dose 0.1-10 nM, time 24-48 hrs
MV4-11 [7] = experiment: Induction of apoptosis in human MV4-11 cells assessed as early apoptotic cells at 10 nM incubated for 48 hrs by Annexin V-FITC/PI staining based flow cytometric analysis (reference value: 4.22 %); assay type: functional
SU-DHL-2 = experiment: Antiproliferative activity against human SU-DHL-2 cells assessed as inhibition of cell growth incubated for 7 days by MTS reagent based assay; assay type: functional; settings: SU-DHL-2, 168 h
MV4-11 [8] = experiment: Downregulation of AXIN2 expression level in human MV4-11 cells at 0.1 to 10 nM measured after 24 to 48 hrs by Western blot analysis; assay type: functional, cell-based; settings: dose 0.1-10 nM, time 24-48 hrs
[9] = target: T1, Protein cereblon/Bromodomain-containing protein 9; experiment: PROTAC activity at CRBN/BRD9 in human MV4-11 cells assessed as induction of BRD9 degradation at 0.33 nM in presence of N-(1,1-dioxidotetrahydro-2H-thiopyran-4-yl)-5-ethyl-4-oxo-7-(3-(trifluoromethyl)phenyl)-4,5-dihydrothieno[3,2-c]pyridine-2-carboximidamide by Western blot analysis; assay type: cell-based
Target sequence in this assay (Q96SW2 whole entry, looked up): as the sequence (Q96SW2 whole entry, looked up) above
Target sequence in this assay (Q9H8M2 whole entry, looked up): as the sequence (Q9H8M2 whole entry, looked up) above

MV4-11 [10] = experiment: Antitumor activity against human MV4-11 cells xenografted in Balb/c nude mouse assessed as tumor growth inhibition at 20 mg/kg, ip administered once daily for 20 days relative to control; assay type: functional; settings: MV4-11, 480 h, time 20 day, read-out: TGI
MV4-11 [11] = experiment: Induction of apoptosis in human MV4-11 cells assessed as late apoptotic cells at 10 nM incubated for 48 hrs by Annexin V-FITC/PI staining based flow cytometric analysis (reference value: 0.91 %); assay type: functional
MV4-11 [12] = experiment: Antiproliferative activity against CRBN knockout human MV4-11 cells assessed as inhibition of cell growth incubated for 7 days by MTS reagent based assay; assay type: functional; settings: MV4-11, 168 h
MV4-11 [13] = experiment: Induction of apoptosis in human MV4-11 cells assessed as early apoptotic cells at 0.01 nM incubated for 48 hrs by Annexin V-FITC/PI staining based flow cytometric analysis (reference value: 4.22 %); assay type: functional
MV4-11 [14] = experiment: Induction of apoptosis in human MV4-11 cells assessed as early apoptotic cells at 1 nM incubated for 48 hrs by Annexin V-FITC/PI staining based flow cytometric analysis (reference value: 4.22 %); assay type: functional
[15] = target: T1, Protein cereblon/Bromodomain-containing protein 9; experiment: PROTAC activity at CRBN/BRD9 in human MV4-11 cells assessed as induction of BRD9 degradation by measuring maximal efficacy by Western blot analysis relative to control; assay type: cell-based
Target sequence in this assay (Q96SW2 whole entry, looked up): as the sequence (Q96SW2 whole entry, looked up) above
Target sequence in this assay (Q9H8M2 whole entry, looked up): as the sequence (Q9H8M2 whole entry, looked up) above

OCI-Ly10 [16] = experiment: Antitumor activity against human OCI-Ly10 cells xenografted in Balb/c nude mouse assessed as test to control ratio at 30 mg/kg, po administered once daily for 18 days relative to control; assay type: functional; settings: time 18 day
[17] = target: T1, Protein cereblon/Bromodomain-containing protein 9; experiment: In vivo PROTAC activity at CRBN/BRD9 in Balb/c nude mouse xenografted with human MV4-11 cells assessed as induction of BRD9 degradation in tumor at 20 mg/kg, ip administered once daily for 20 days by Western blot analysis; assay type: functional, organism-based; settings: time 20.0 day
Target sequence in this assay (Q96SW2 whole entry, looked up): as the sequence (Q96SW2 whole entry, looked up) above
Target sequence in this assay (Q9H8M2 whole entry, looked up): as the sequence (Q9H8M2 whole entry, looked up) above

MV4-11 [18] = experiment: Induction of apoptosis in human MV4-11 cells assessed as viable cells at 0.01 nM incubated for 48 hrs by Annexin V-FITC/PI staining based flow cytometric analysis (reference value: 94.80 %); assay type: functional; settings: read-out: Activity
MV4-11 [19] = experiment: Antitumor activity against human MV4-11 cells xenografted in Balb/c nude mouse assessed as tumor weight at 20 mg/kg, ip administered once daily for 20 days (reference value: 1.30 +/- 0.51 g); assay type: functional; settings: time 20 day
MOLM-13 = experiment: Antiproliferative activity against human MOLM-13 cells assessed as inhibition of cell growth incubated for 7 days by MTS reagent based assay; assay type: functional; settings: MOLM-13, 168 h
[20] = Toxicity in Balb/c nude mouse xenografted with human OCI-Ly10 cells assessed as effect on body weight at 30 mg/kg, po administered once daily for 18 days; assay type: organism-based; settings: in vivo, 432 h, time 18 day
MV4-11 [21] = experiment: Downregulation of beta-catenin expression level in human MV4-11 cells at 0.1 to 10 nM measured after 24 to 48 hrs by Western blot analysis; assay type: functional, cell-based; settings: dose 0.1-10 nM, time 24-48 hrs
[22] = target: T1, Protein cereblon/Bromodomain-containing protein 9; experiment: PROTAC activity at CRBN/BRD9 in human MV4-11 cells assessed as induction of BRD9 degradation at 0.33 nM in presence of MLN4924 by Western blot analysis; assay type: cell-based
Target sequence in this assay (Q96SW2 whole entry, looked up): as the sequence (Q96SW2 whole entry, looked up) above
Target sequence in this assay (Q9H8M2 whole entry, looked up): as the sequence (Q9H8M2 whole entry, looked up) above

[23] = target: T1, Protein cereblon/Bromodomain-containing protein 9; experiment: PROTAC activity at CRBN/BRD9 in human MV4-11 cells assessed as induction of BRD9 degradation at 0.33 nM by Western blot analysis relative to control; assay type: cell-based; settings: time 0.5-24 hrs
Target sequence in this assay (Q96SW2 whole entry, looked up): as the sequence (Q96SW2 whole entry, looked up) above
Target sequence in this assay (Q9H8M2 whole entry, looked up): as the sequence (Q9H8M2 whole entry, looked up) above

Kasumi 1 = experiment: Antiproliferative activity against human Kasumi 1 cells assessed as inhibition of cell growth incubated for 7 days by MTS reagent based assay; assay type: functional; settings: Kasumi 1, 168 h
[24] = target: T1, Protein cereblon/Bromodomain-containing protein 9; experiment: PROTAC activity at CRBN/BRD9 in human MV4-11 cells assessed as induction of BRD9 degradation at 0.33 nM in presence of MG132 by Western blot analysis; assay type: cell-based
OCI-Ly10 [25] = experiment: Antitumor activity against human OCI-Ly10 cells xenografted in Balb/c nude mouse assessed as tumor mass at 30 mg/kg, po administered once daily for 18 days (reference value: 1.12 +/- 0.44 g); assay type: functional; settings: time 18 day
MV4-11 [26] = experiment: Induction of apoptosis in human MV4-11 cells assessed as necrotic cells at 0.01 nM incubated for 48 hrs by Annexin V-FITC/PI staining based flow cytometric analysis (reference value: 0.07 %); assay type: functional
MV4-11 [27] = experiment: Antiproliferative activity against human MV4-11 cells assessed as inhibition of cell growth incubated for 7 days by MTS reagent based assay; assay type: functional; settings: MV4-11, 168 h
SU-DHL-6 = experiment: Antiproliferative activity against human SU-DHL-6 cells assessed as inhibition of cell growth incubated for 7 days by MTS reagent based assay; assay type: functional; settings: SU-DHL-6, 168 h
MV4-11 [28] = experiment: Downregulation of CELF1 protein expression in human MV4-11 cells by proteomic analysis; assay type: functional, cell-based
[29] = target: T1, Protein cereblon/Bromodomain-containing protein 9; experiment: PROTAC activity at CRBN/BRD9 in human MV4-11 cells assessed as induction of BRD9 degradation by Western blot analysis; assay type: cell-based

In the case of `COc1cc(-c2cn(C)c(=O)c3ccccc23)cc(OC)c1CN1CCC(CN2CCC(c3ccc4c5c(cccc35)C(=O)N4C3CCC(=O)NC3=O)CC2)CC1` (centres undefined), the Activity [1] is reported as “Active”, the Activity (MV4-11 [2]) is reported as 4.99 and the Activity (MV4-11 [3]) is reported as “Active”. The Activity (MV4-11 [4]) was “Active”, the Activity (MV4-11 [5]) was 1.63% and the Activity (MV4-11 [6]) was “Active”. For the same compound, the Activity (MV4-11 [7]) was 16.97%, the IC50 (SU-DHL-2) was 38.6 nM and the Activity (MV4-11 [8]) was “Active”. The Activity [9] was “inactive”, the inhibition in vivo at 20 mg/kg (MV4-11 [10]) was 30.9% and the Activity (MV4-11 [11]) was 8.01%. For the same compound, the IC50 (MV4-11 [12]) was greater than 5000 nM, the Activity (MV4-11 [13]) was 6.35% and the Activity (MV4-11 [14]) was 13.79%. For the same compound, the Emax [15] was 97%, the T/C (OCI-Ly10 [16]) was roughly 40% and the Activity [17] was “Active”. It also gave a viability at 10 pM (MV4-11 [18]) of 92%, an Activity (MV4-11 [19]) of 0.9 g and an IC50 (MOLM-13) of 0.37 nM. For the same compound, the Activity [20] was “Non-toxic”, the Activity (MV4-11 [21]) was “Active” and the Activity [22] was “Not active; Compound Functioned Through Ubiquitin-Proteasome System”. The Activity [23] was “Time-dependent-effect”, the IC50 (Kasumi 1) was 1.13 nM and the Activity [24] was “Not active; Compound Functioned Through Ubiquitin-Proteasome System”. It also gave an Activity (OCI-Ly10 [25]) of 0.56 g, an Activity (MV4-11 [26]) of 0.03% and an IC50 (MV4-11 [27]) of 0.27 nM. The IC50 (SU-DHL-6) was 375 nM, the Activity (MV4-11 [28]) was “Active” and the Activity [29] was “Dose-dependent-effect”. The DC50 [29] was 0.016 nM.
